Source: BigSolDB 2.1

Cc1c(N(C)CS(=O)(=O)[O-])c(=O)n(-c2ccccc2)n1C.O.[Na+]
solubility (mole fraction)
Settings	in acetone	in ethanol	in ethyl acetate	in isopropanol	in methanol	in methyl acetate	in n-butanol	in n-propanol	in sec-butanol	in water
293.15 K	0.0001	0.0032	0.0001	0.0003	0.0278	0.0001	0.0003	0.0011	0.0002	0.0538
298.15 K	0.0001	0.0037	0.0001	0.0004	0.0318	0.0001	0.0004	0.0013	0.0003	0.0576
303.05 K	0.0002	0.0042	0.0001	0.0005	0.0363	0.0001	0.0005	0.0016	0.0004	0.0615
308.05 K	0.0002	0.0049	0.0002	0.0006	0.0408	0.0001	0.0007	0.0019	0.0006	0.0656
313.05 K	0.0003	0.0056	0.0002	0.0008	0.0475	0.0002	0.0009	0.0023	0.0007	0.0697
318.05 K	0.0003	0.0064	0.0003	0.0009	0.0521	0.0002	0.0012	0.0028	0.001	0.0738
323.05 K	0.0004	0.0073	0.0003	0.0011	0.058	0.0003	0.0015	0.0034	0.0013	0.0782
327.95 K	0.0005	0.0082	0.0004	0.0014	0.0634	0.0004	0.0019	0.004	0.0016	0.0825
332.85 K	0.0006	0.0092	0.0005	0.0016	0.0688	0.0005	0.0024	0.0047	0.0021	0.087
